Results as given in the C3SDB collision cross section collection.

Conditions: instrument: DT, stepped-field

Structure (SMILES)	collision cross section (N2) ([M+2Na-H]+) [Å²]	collision cross section (N2) ([M+Na]+) [Å²]	collision cross section (N2) ([M+H]+) [Å²]	also measured
CCCCC/C=C\CCCCCCCC(=O)OC[C@H](COP(=O)(O)OCCN)OC(=O)CCCCCCCCCCCCCCCCCCCCC [PE(37:01)]	286.74	284.35	–	–
CCCCCCCC/C=C\CCCCCCCC(=O)OC[C@H](COP(=O)(O)OCCN)OC(=O)CCCCCCC/C=C\CCCCCCCCC [PE(37:02)]	285.18	282.21	–	–
CCCCC/C=C\C/C=C\CCCCCCCCCCCC(=O)O[C@H](COC(=O)CCCCCCCCCCCCCCC)COP(=O)(O)OCCN [PE(38:02)]	288.8	–	–	–
CC/C=C\C/C=C\C/C=C\C/C=C\CCCCC(=O)O[C@H](COC(=O)CCCCCCCCCCCCCCCCCCC)COP(=O)(O)OCCN [PE(38:04)]	284.96	–	–	collision cross section (N2) ([M+K]+): 284.45 Å²; collision cross section (N2) ([M-H]-): 276.04 Å²
CCCCC/C=C\C/C=C\C/C=C\CCCCC(=O)OC[C@H](COP(=O)(O)OCCN)OC(=O)CCCCCCCCCCC/C=C\C/C=C\CCCCC [PE(40:05)]	289.53	289.38	–	collision cross section (N2) ([M-H]-): 280.89 Å²
CCCCCC/C=C\CCCCCCCC(=O)O[C@H](COCCCCCCCCCCCCCCCCCC)COP(=O)(O)OCCN [PE(o34:01)]	276.22	275.79	–	–
CCCCCCCC/C=C\CCCCCCCCCC(=O)O[C@H](COCCCCCCCCCCCCCCCC)COP(=O)(O)OCCN [PE(o36:01)]	283.23	281.66	277.08	–
CCCCC/C=C\C/C=C\CCCCCCCC(=O)O[C@H](COCCCCCCCCCCCCCCCCCC)COP(=O)(O)OCCN [PE(o36:02)]	280.9	280.37	274.98	–
CC/C=C\C/C=C\C/C=C\C/C=C\C/C=C\C/C=C\CCC(=O)O[C@H](COCCCCCCCCCCCCCCCC)COP(=O)(O)OCCN [PE(o38:06)]	280.85	–	–	–
CC/C=C\C/C=C\C/C=C\C/C=C\C/C=C\C/C=C\CCC(=O)O[C@H](COCCCCCCCCCCCCCCCCCC)COP(=O)(O)OCCN [PE(o40:06)]	288.19	–	–	–
CCCCCCCC/C=C\CCCCCCCC(=O)OC[C@H](COP(=O)(O)OC[C@H](N)C(=O)O)OC(=O)CCCCCCC/C=C\CCCCCCCC [PS(36:02)]	285.97	–	280.92	collision cross section (N2) ([M+K]+): 285.23 Å²; collision cross section (N2) ([M-H]-): 281.82 Å²
CCCCCCCCCC/C=C\CCCCCCCCCC(=O)O[C@H](COC(=O)CCCCCCCCCCCCCCC)COP(=O)(O)OC[C@H](N)C(=O)O [PS(38:01)]	295.38	–	289.63	–
CCCCC/C=C\C/C=C\CCCCCCCCCCCC(=O)O[C@H](COC(=O)CCCCCCC/C=C\CCCCCC)COP(=O)(O)OC[C@H](N)C(=O)O [PS(38:03)]	–	–	–	collision cross section (N2) ([M-H]-): 286.53 Å²
CCCCC/C=C\C/C=C\C/C=C\C/C=C\CCCCCC(=O)O[C@H](COC(=O)CCCCCCCCCCCCCCCC)COP(=O)(O)OC[C@H](N)C(=O)O [PS(39:04)]	291.95	–	–	–
CCCCCCCC/C=C\CCCCCCCCCC(=O)OC[C@H](COP(=O)(O)OC[C@H](N)C(=O)O)OC(=O)CCCCCCCCCCCCCCCCCCC [PS(40:01)]	301.13	–	295.93	–
CCCCC/C=C\C/C=C\C/C=C\CCCCC(=O)OC[C@H](COP(=O)(O)OC[C@H](N)C(=O)O)OC(=O)CCCCCCCCC/C=C\CCCCCCCCCC [PS(40:04)]	298.27	295.22	291.15	collision cross section (N2) ([M+K]+): 295.44 Å²; collision cross section (N2) ([M-H]-): 291.3 Å²
CCCCC/C=C\C/C=C\C/C=C\C/C=C\CCCC(=O)O[C@H](COC(=O)CCCCCCCCC/C=C\CCCCCCCC)COP(=O)(O)OC[C@H](N)C(=O)O [PS(40:05)]	297.17	293.82	289.6	collision cross section (N2) ([M+K]+): 294.22 Å²; collision cross section (N2) ([M-H]-): 290.27 Å²
CC/C=C\C/C=C\C/C=C\C/C=C\C/C=C\C/C=C\CCC(=O)O[C@H](COC(=O)CCCCCCC/C=C\C/C=C\C/C=C\CC)COP(=O)(O)OC[C@H](N)C(=O)O [PS(40:09)]	284.82	–	–	–
CCCCC/C=C\C/C=C\CCCCCCCCCCCC(=O)O[C@H](COC(=O)CCCCCCCCCCCCCCCCCCC)COP(=O)(O)OC[C@H](N)C(=O)O [PS(42:02)]	306.07	302	299.5	–
CCCCC/C=C\C/C=C\CCCCCCCCCCCC(=O)O[C@H](COC(=O)CCCCCCCCC/C=C\CCCCCCCC)COP(=O)(O)OC[C@H](N)C(=O)O [PS(42:03)]	–	–	298.03	–
CCCCC/C=C\C/C=C\C/C=C\CCCCCCC(=O)OC[C@H](COP(=O)(O)OC[C@H](N)C(=O)O)OC(=O)CCCCCCCCC/C=C\CCCCCCCCCC [PS(42:04)]	304.19	298.86	296.39	–
CCCCC/C=C\C/C=C\C/C=C\CCCCCCC(=O)OC[C@H](COP(=O)(O)OC[C@H](N)C(=O)O)OC(=O)CCCCCCCCCCC/C=C\C/C=C\CCCCC [PS(42:05)]	300.15	297.67	295.24	–
CC/C=C\C/C=C\C/C=C\C/C=C\C/C=C\C/C=C\CCC(=O)OC[C@H](COP(=O)(O)OC[C@H](N)C(=O)O)OC(=O)CCCCCCCCCCC/C=C\C/C=C\CCCCC [PS(44:08)]	301.25	–	–	–
CCCC/C=C\C/C=C\CCCCCCCC(=O)O[C@H](COCCCCCCCCCCCCCCCCCC)COP(=O)(O)OC[C@H](N)C(=O)O [PS(o35:02)]	282.4	–	–	–
CCCCCCCCCCCCC=CC[C@@H](O)[C@H](COP(=O)([O-])OCC[N+](C)(C)C)NC(=O)CC=CCCCCCCCCCCCCCC [SM(36:02)]	–	280.32	284.15	collision cross section (N2) ([M+HCOO]-): 289.73 Å²
CCCCCCCCCCCCCCCCCCCCCC(=O)N[C@@H](COP(=O)([O-])OCC[N+](C)(C)C)[C@H](O)CCCCCCCCCCCCCCC [SM(40:00)]	–	–	299.61	collision cross section (N2) ([M+Cl]-): 301.5 Å²; collision cross section (N2) ([M+HCOO]-): 303.38 Å²
CCCCCCCCCCCCC=CC[C@@H](O)[C@H](COP(=O)([O-])OCC[N+](C)(C)C)NC(=O)CCCCCCCCCCCCCCCCCCCCC [SM(40:01)]	–	296	297.88	collision cross section (N2) ([M+Cl]-): 300.79 Å²; collision cross section (N2) ([M+HCOO]-): 301.44 Å²
CCCCCCCCCCCCCCCCCCCCCCC(=O)N[C@@H](COP(=O)([O-])OCC[N+](C)(C)C)[C@H](O)CCCCCCCCCCCCCCC [SM(41:00)]	301.12	–	302.29	–
